PubChem BioAssay (NCI)
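Five concentrations, 48 hours, 96-well plates. TGI marks complete inhibition of growth.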

Experiments:
Assay in all cases: growth of human tumour cells (NCI), 48 h
786-0 renal = tested on: 786-0 renal
K-562 leukemia = tested on: K-562 leukemia
MCF7 breast = tested on: MCF7 breast
MDA-N = tested on: MDA-N
UACC-257 melanoma = tested on: UACC-257 melanoma
OVCAR-3 ovarian = tested on: OVCAR-3 ovarian
HOP-62 NSCLC = tested on: HOP-62 NSCLC
MALME-3M melanoma = tested on: MALME-3M melanoma
SN12C renal = tested on: SN12C renal
EKVX NSCLC = tested on: EKVX NSCLC
UO-31 renal = tested on: UO-31 renal
SNB-75 CNS = tested on: SNB-75 CNS
SK-MEL-28 melanoma = tested on: SK-MEL-28 melanoma
CAKI-1 renal = tested on: CAKI-1 renal
HCC-2998 colon = tested on: HCC-2998 colon
SF-295 CNS = tested on: SF-295 CNS
NCI/ADR-RES ovarian = tested on: NCI/ADR-RES ovarian
SF-539 CNS = tested on: SF-539 CNS
SF-268 CNS = tested on: SF-268 CNS
IGROV1 ovarian = tested on: IGROV1 ovarian
SK-MEL-2 melanoma = tested on: SK-MEL-2 melanoma
A549 NSCLC = tested on: A549 NSCLC
M14 melanoma = tested on: M14 melanoma
TK-10 renal = tested on: TK-10 renal
SK-OV-3 ovarian = tested on: SK-OV-3 ovarian
SW-620 colon = tested on: SW-620 colon
PC-3 prostate = tested on: PC-3 prostate
OVCAR-8 ovarian = tested on: OVCAR-8 ovarian
SK-MEL-5 melanoma = tested on: SK-MEL-5 melanoma
T-47D breast = tested on: T-47D breast
HCT-116 colon = tested on: HCT-116 colon
ACHN renal = tested on: ACHN renal
OVCAR-5 ovarian = tested on: OVCAR-5 ovarian
NCI-H23 lung = tested on: NCI-H23 lung
LOX IMVI melanoma = tested on: LOX IMVI melanoma
HS 578T breast = tested on: HS 578T breast
OVCAR-4 ovarian = tested on: OVCAR-4 ovarian
U251 CNS = tested on: U251 CNS
A498 renal = tested on: A498 renal
HOP-92 NSCLC = tested on: HOP-92 NSCLC
HCT-15 colon = tested on: HCT-15 colon
HT29 colon = tested on: HT29 colon
CCRF-CEM leukemia = tested on: CCRF-CEM leukemia
SNB-19 CNS = tested on: SNB-19 CNS
MDA-MB-231 breast = tested on: MDA-MB-231 breast
NCI-H460 lung = tested on: NCI-H460 lung
KM12 colon = tested on: KM12 colon
COLO 205 colon = tested on: COLO 205 colon
SR leukemia = tested on: SR leukemia
RPMI-8226 leukemia = tested on: RPMI-8226 leukemia
BT-549 breast = tested on: BT-549 breast
NCI-H226 lung = tested on: NCI-H226 lung
RXF 393 renal = tested on: RXF 393 renal
HL-60(TB) leukemia = tested on: HL-60(TB) leukemia
MDA-MB-435 = tested on: MDA-MB-435
DU-145 prostate = tested on: DU-145 prostate
MOLT-4 leukemia = tested on: MOLT-4 leukemia
UACC-62 melanoma = tested on: UACC-62 melanoma

C/C(Cl)=N\OC(=O)Nc1ccc(C)cc1
TGI (786-0 renal): 32.7 µM | TGI (K-562 leukemia): > 100 µM | TGI (MCF7 breast): 25.3 µM | TGI (MDA-N): 29.9 µM | TGI (UACC-257 melanoma): 32.9 µM | TGI (OVCAR-3 ovarian): 34.3 µM | TGI (HOP-62 NSCLC): > 100 µM | TGI (MALME-3M melanoma): 31 µM | TGI (SN12C renal): 33.7 µM | TGI (EKVX NSCLC): 32.3 µM | TGI (UO-31 renal): 31.3 µM | TGI (SNB-75 CNS): 26.3 µM | TGI (SK-MEL-28 melanoma): 28.1 µM | TGI (CAKI-1 renal): 30.4 µM | TGI (HCC-2998 colon): 31.4 µM | TGI (SF-295 CNS): 30.5 µM | TGI (NCI/ADR-RES ovarian): 42.1 µM | TGI (SF-539 CNS): 35.8 µM | TGI (SF-268 CNS): 32.9 µM | TGI (IGROV1 ovarian): 32.5 µM | TGI (SK-MEL-2 melanoma): 33.1 µM | TGI (A549 NSCLC): 35.6 µM | TGI (M14 melanoma): 30.9 µM | TGI (TK-10 renal): 28.5 µM | TGI (SK-OV-3 ovarian): 31.1 µM | TGI (SW-620 colon): 33 µM | TGI (PC-3 prostate): 29.3 µM | TGI (OVCAR-8 ovarian): 32.4 µM | TGI (SK-MEL-5 melanoma): 31.5 µM | TGI (T-47D breast): 48.2 µM | TGI (HCT-116 colon): 38.6 µM | TGI (ACHN renal): 29.1 µM | TGI (OVCAR-5 ovarian): 32.6 µM | TGI (NCI-H23 lung): 39 µM | TGI (LOX IMVI melanoma): 43.7 µM | TGI (HS 578T breast): 83 µM | TGI (OVCAR-4 ovarian): 32.9 µM | TGI (U251 CNS): 29.9 µM | TGI (A498 renal): 32.9 µM | TGI (HOP-92 NSCLC): 37.1 µM | TGI (HCT-15 colon): 31.5 µM | TGI (HT29 colon): 41.6 µM | TGI (CCRF-CEM leukemia): 6.31 µM | TGI (SNB-19 CNS): > 100 µM | TGI (MDA-MB-231 breast): 37.5 µM | TGI (NCI-H460 lung): 33.4 µM | TGI (KM12 colon): 35.1 µM | TGI (COLO 205 colon): 33.3 µM

O=C(OCCN=c1c2ccccc2ccc2ccccc12)c1ccccc1
TGI (786-0 renal): > 100 µM | TGI (K-562 leukemia): > 100 µM | TGI (MCF7 breast): > 100 µM | TGI (MDA-N): > 100 µM | TGI (UACC-257 melanoma): > 100 µM | TGI (OVCAR-3 ovarian): > 100 µM | TGI (SR leukemia): > 100 µM | TGI (HOP-62 NSCLC): > 100 µM | TGI (MALME-3M melanoma): > 100 µM | TGI (SN12C renal): > 100 µM | TGI (RPMI-8226 leukemia): > 100 µM | TGI (EKVX NSCLC): > 100 µM | TGI (UO-31 renal): > 100 µM | TGI (BT-549 breast): > 100 µM | TGI (SNB-75 CNS): > 100 µM | TGI (SK-MEL-28 melanoma): > 100 µM | TGI (CAKI-1 renal): > 100 µM | TGI (HCC-2998 colon): > 100 µM | TGI (SF-295 CNS): > 100 µM | TGI (NCI/ADR-RES ovarian): > 100 µM | TGI (SF-539 CNS): > 100 µM | TGI (SF-268 CNS): > 100 µM | TGI (IGROV1 ovarian): > 100 µM | TGI (SK-MEL-2 melanoma): > 100 µM | TGI (A549 NSCLC): > 100 µM | TGI (M14 melanoma): > 100 µM | TGI (TK-10 renal): > 100 µM | TGI (SK-OV-3 ovarian): > 100 µM | TGI (SW-620 colon): > 100 µM | TGI (PC-3 prostate): > 100 µM | TGI (OVCAR-8 ovarian): > 100 µM | TGI (NCI-H226 lung): > 100 µM | TGI (SK-MEL-5 melanoma): > 100 µM | TGI (HCT-116 colon): > 100 µM | TGI (ACHN renal): > 100 µM | TGI (OVCAR-5 ovarian): > 100 µM | TGI (RXF 393 renal): > 100 µM | TGI (HL-60(TB) leukemia): > 100 µM | TGI (NCI-H23 lung): > 100 µM | TGI (LOX IMVI melanoma): > 100 µM | TGI (HS 578T breast): > 100 µM | TGI (MDA-MB-435): > 100 µM | TGI (OVCAR-4 ovarian): > 100 µM | TGI (DU-145 prostate): > 100 µM | TGI (MOLT-4 leukemia): > 100 µM | TGI (UACC-62 melanoma): > 100 µM | TGI (U251 CNS): > 100 µM | TGI (HOP-92 NSCLC): > 100 µM | TGI (HCT-15 colon): > 100 µM | TGI (HT29 colon): > 100 µM | TGI (CCRF-CEM leukemia): > 100 µM | TGI (SNB-19 CNS): > 100 µM | TGI (MDA-MB-231 breast): > 100 µM | TGI (NCI-H460 lung): > 100 µM | TGI (KM12 colon): > 100 µM | TGI (COLO 205 colon): > 100 µM
